Consider 14 compounds from patent US20230091225A1, “Bifunctional chimeric heterocyclic compounds for targeted degradation of androgen receptors and use thereof” (HINOVA PHARMACEUTICALS INC., priority 2019, published 2023).

The test has as its target T1, androgen receptor (AR) (Homo sapiens, UniProt P10275).
T1 sequence (P10275 1-920): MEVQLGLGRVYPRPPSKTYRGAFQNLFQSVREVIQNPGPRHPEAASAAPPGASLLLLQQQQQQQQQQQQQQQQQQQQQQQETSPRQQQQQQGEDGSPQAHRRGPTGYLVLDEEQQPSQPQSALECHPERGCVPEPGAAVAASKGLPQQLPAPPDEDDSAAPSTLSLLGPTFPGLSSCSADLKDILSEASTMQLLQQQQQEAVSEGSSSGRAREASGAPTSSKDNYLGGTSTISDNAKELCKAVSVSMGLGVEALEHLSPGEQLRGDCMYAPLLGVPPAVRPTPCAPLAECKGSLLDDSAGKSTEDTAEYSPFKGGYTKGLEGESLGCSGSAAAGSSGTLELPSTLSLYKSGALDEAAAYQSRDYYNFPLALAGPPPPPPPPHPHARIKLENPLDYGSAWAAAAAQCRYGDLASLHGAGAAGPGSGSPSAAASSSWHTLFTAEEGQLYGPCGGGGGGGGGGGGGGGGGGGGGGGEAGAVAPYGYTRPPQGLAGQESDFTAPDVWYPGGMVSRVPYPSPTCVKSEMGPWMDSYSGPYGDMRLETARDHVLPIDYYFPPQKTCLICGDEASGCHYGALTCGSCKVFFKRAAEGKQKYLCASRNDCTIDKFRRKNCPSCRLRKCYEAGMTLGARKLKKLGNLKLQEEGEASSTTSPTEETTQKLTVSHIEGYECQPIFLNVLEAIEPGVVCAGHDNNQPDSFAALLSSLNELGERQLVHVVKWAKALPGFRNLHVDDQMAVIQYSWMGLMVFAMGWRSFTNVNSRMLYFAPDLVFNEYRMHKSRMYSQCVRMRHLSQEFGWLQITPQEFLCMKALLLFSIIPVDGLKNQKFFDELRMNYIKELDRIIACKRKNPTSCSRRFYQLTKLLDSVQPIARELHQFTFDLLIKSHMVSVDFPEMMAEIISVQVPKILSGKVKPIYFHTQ
In words: Degradation of androgen receptor (AR) protein in VCaP cells by ELISA. Particulars: for DC50: read-out: DC50; for Dmax: VCaP, read-out: Dmax (%). The class given is cell-based.

Setting [1] is: AR degradation, VCaP cells, 16 h, ELISA, Table 3-1.

Structures are written as SMILES. Read-outs that look alike come from different tables or passages of the source. Bounds are passed on as bounds.

`CC1(C)C(Oc2ccc(C#N)c(Cl)c2)C(C)(C)C1N1Cc2nc(C#CC3CCC(N4CC5CN(c6ccc7c(c6)C(=O)N([C@@H]6CCC(=O)NC6=O)C7=O)CC5C4)CC3)ccc2C1=O` (some centres unmarked) [Compound 349, 2-Chloro-4-((1r,3r)-3-(2-((4-(5-(2-(2,6-dioxopiperidin-3-yl)-1,3-dioxoisoindolin-5-yl)hexahydropyrrolo[3,4-c]pyrrol-2(1H)-yl)cyclohexyl)ethynyl)-5-oxo-5,7-dihydro-6H-pyrrolo[3,4-b]pyridin-6-yl)-2,2,4,4-tetramethylcyclobutoxy)benzonitrile]: the DC50 – broadly, the concentration giving 50% degradation – fell in the range of 10 to 100 nM. For the same compound, the “Dmax (%)” value under setting [1] is given as “++++ (>80%)”. Take `CC1(C)[C@H](Oc2ccc(C#N)c(Cl)c2)C(C)(C)[C@H]1N1Cc2nc(C#CC3CCC(N4CC5(CN(c6ccc7c(c6)C(=O)N([C@@H]6CCC(=O)NC6=O)C7=O)C5)C4)CC3)ccc2C1=O` (some centres unmarked) [Compound 350, 2-Chloro-4-((1r,3r)-3-(2-((4-(6-(2-(2,6-dioxopiperidin-3-yl)-1,3-dioxoisoindolin-5-yl)-2,6-diazaspiro[3.3]heptane-2-yl)cyclohexyl)ethynyl)-5-oxo-5,7-dihydro-6H-pyrrolo[3,4-b]pyridin-6-yl)-2,2,4,4-tetramethylcyclobutoxy) benzonitrile]: the “Dmax (%)” value is listed as “++ (key: ++++: >80%; +++: 80%-60%; ++: 60%-40%; +: <40%)” and the DC50 lay in the range of 100 to 300 nM. As to `CC1(C)[C@H](Oc2ccc(C#N)c(Cl)c2)C(C)(C)[C@H]1N1Cc2nc(C#CC3CCC(N4CC5(CN(c6ccc7c(c6)C(=O)N([C@@H]6CCC(=O)NC6=O)C7=O)C5)C4)CC3)ccc2C1=O` (some centres unmarked) [Compound 351, 2-Chloro-4-((1r,3r)-3-(2-((4-(6-(2-(2,6-dioxopiperidin-3-yl)-1,3-dioxoisoindolin-5-yl)-2,6-diazaspiro[3.3]heptane-2-yl)cyclohexyl)ethynyl)-5-oxo-5,7-dihydro-6H-pyrrolo[3,4-b]pyridin-6-yl)-2,2,4,4-tetramethylcyclobutoxy) benzonitrile], the “Dmax (%)” value is “++++ (key: A: >80%; B: 79%-50%; C: 49%-25%; D: <25%)” and the DC50 is below 10 nM. For the compound `CC1(C)[C@H](Oc2ccc(C#N)c(Cl)c2)C(C)(C)[C@H]1N1Cc2nc(C#C[C@H]3C[C@H](N4CCN(c5ccc6c(c5)C(=O)N(C5CCC(=O)NC5=O)C6=O)CC4)C3)ccc2C1=O` (some centres unmarked) [Compound 355], under setting [1], the DC50 is below 10 nM and the Dmax (in general, the greatest extent of degradation seen) is above 80%. For `CC1(C)[C@H](Oc2ccc(C#N)c(Cl)c2)C(C)(C)[C@H]1N1Cc2nc(C#C[C@H]3C[C@H](N4CCN(c5cc6c(cc5F)C(=O)N(C5CCC(=O)NC5=O)C6=O)CC4)C3)ccc2C1=O` (some centres unmarked) [Compound 357], under setting [1], the DC50 is below 10 nM and the Dmax was above 80%. Taken in the same sequence, the figures for `CC1(C)[C@H](Oc2ccc(C#N)c(Cl)c2)C(C)(C)[C@H]1N1Cc2nc(C#CC3CC(N4CC5CN(c6ccc7c(c6)C(=O)N(C6CCC(=O)NC6=O)C7=O)CC5C4)C3)ccc2C1=O` (some centres unmarked) [Compound 358, 2-chloro-4-((1r,3r)-3-(2-((3-(5-(2-(2,6-dioxopiperidin-3-yl)-1,3-dioxoisoindolin-5-yl)hexahydropyrrolo[3,4-c]pyrrol-2(1H)-yl)cyclobutyl)ethynyl)-5-oxo-5,7-dihydro-6H-pyrrolo[3,4-b]pyridin-6-yl)-2,2,4,4-tetramethylcyclobutoxy)benzonitrile] were 10 to 100 nM and 60 to 80%. With `CC1(C)[C@H](Oc2ccc(C#N)c(Cl)c2)C(C)(C)[C@H]1N1Cc2nc(C#CC3CC(N4CC5CN(c6ccc7c(c6)C(=O)N(C6CCC(=O)NC6=O)C7=O)CC5C4)C3)ccc2C1=O` (some centres unmarked) [Compound 359, 2-Chloro-4-((1r,3r)-3-(2-((3-(5-(2-(2,6-dioxopiperidin-3-yl)-1,3-dioxoisoindolin-5-yl)hexahydropyrrolo[3,4-c]pyrrol-2(1H)-yl)cyclobutyl)ethynyl)-5-oxo-5,7-dihydro-6H-pyrrolo[3,4-b]pyridin-6-yl)-2,2,4,4-tetramethylcyclobutoxy)benzonitrile], under setting [1], the DC50 lay in the range of 10 to 100 nM.

`CC1(C)[C@H](Oc2ccc(C#N)c(Cl)c2)C(C)(C)[C@H]1N1Cc2nc(C#CC3CC(N4CC5CN(c6cc7c(cc6F)C(=O)N(C6CCC(=O)NC6=O)C7=O)CC5C4)C3)ccc2C1=O` (some centres unmarked) [Compound 360]: under setting [1], the DC50 is 10 to 100 nM and the Dmax fell in the range of 60 to 80%. As for `CC1(C)[C@H](Oc2ccc(C#N)c(Cl)c2)C(C)(C)[C@H]1N1Cc2nc(C#CC3CC(N4CC5CN(c6cc7c(cc6F)C(=O)N(C6CCC(=O)NC6=O)C7=O)CC5C4)C3)ccc2C1=O` (some centres unmarked) [Compound 361, 2-Chloro-4-((1r,3r)-3-(2-((3-(5-(2,6-dioxopiperidin-3-yl)-6-fluoro-1,3-dioxoisoindolin-5-yl)hexahydropyrrolo[3,4-c]pyrrol-2(1H)-cyclobutyl)ethynyl)-5-oxo-5,7-dihydro-6H-pyrrolo[3,4-b]pyridin-6-yl)-2,2,4,4-tetramethylcyclobutoxy) benzonitrile], the DC50 under setting [1] lay within 10 to 100 nM.

For the compound `CC1(C)[C@H](Oc2ccc(C#N)c(Cl)c2)C(C)(C)[C@H]1N1Cc2nc(C#CC3CCC(N4CCC5(CC4)CN(c4ccc6c(c4)C(=O)N(C4CCC(=O)NC4=O)C6=O)C5)CC3)ccc2C1=O` (some centres unmarked) [Compound 362], under setting [1], the DC50 is below 10 nM and the Dmax was above 80%.

As to `CC1(C)[C@H](Oc2ccc(C#N)c(Cl)c2)C(C)(C)[C@H]1N1Cc2nc(C#CC3CCC(N4CCC5(CC4)CN(c4cc6c(cc4F)C(=O)N(C4CCC(=O)NC4=O)C6=O)C5)CC3)ccc2C1=O` (some centres unmarked) [Compound 363], under setting [1], the DC50 lay within 10 to 100 nM and the Dmax was in the range of 60 to 80%.

For the compound `CC1(C)[C@H](Oc2ccc(C#N)c(Cl)c2)C(C)(C)[C@H]1N1Cc2nc(C#CC3CCC(N4CCC5(CCN(c6ccc7c(c6)C(=O)N(C6CCC(=O)NC6=O)C7=O)C5)C4)CC3)ccc2C1=O` (some centres unmarked) [Compound 364, 2-Chloro-4-((1r,3r)-3-(2-((4-(7-(2-(2,6-dioxopiperidin-3-yl)-1,3-dioxoisoindolin-5-yl)-2,7-Diazaspiro[4.4]nonan-2-yl)cyclohexyl)ethynyl)-5-oxo-5,7-dihydro-6H-pyrrolo[3,4-b]pyridin-6-yl)-2,2,4,4-tetramethylcyclobutoxy) benzonitrile], under setting [1], the DC50 is below 10 nM and the Dmax is above 80%. On to `CC1(C)[C@H](Oc2ccc(C#N)c(Cl)c2)C(C)(C)[C@H]1N1Cc2nc(C#CC3CCC(N4CCC5(CCN(c6ccc7c(c6)C(=O)N(C6CCC(=O)NC6=O)C7=O)C5)C4)CC3)ccc2C1=O` (some centres unmarked) [Compound 365, 2-Chloro-4-((1r,3r)-3-(2-((4-(7-(2-(2,6-dioxopiperidin-3-yl)-1,3-dioxoisoindolin-5-yl)-2,7-Diazaspiro[4.4]nonan-2-yl)cyclohexyl)ethynyl)-5-oxo-5,7-dihydro-6H-pyrrolo[3,4-b]pyridin-6-yl)-2,2,4,4-tetramethylcyclobutoxy) benzonitrile], for which, under setting [1], the “Dmax (%)” value is reported as “++++ (>80%)” and the DC50 was 10 to 100 nM. For `CC1(C)[C@H](Oc2ccc(C#N)c(Cl)c2)C(C)(C)[C@H]1N1Cc2nc(C#CC3CCC(N4CCC5(CCN(c6cc7c(cc6F)C(=O)N(C6CCC(=O)NC6=O)C7=O)C5)C4)CC3)ccc2C1=O` (some centres unmarked) [Compound 366, 2-Chloro-4-((1r,3r)-3-(2-((4-(7-(2-(2,6-dioxopiperidin-3-yl)-6-fluoro-1,3-dioxoisoindolin-5-yl)-2,7-diazaspiro[4.4]nonan-2-yl)cyclohexyl)ethynyl)-5-oxo-5,7-dihydro-6H-pyrrolo[3,4-b]pyridin-6-yl)-2,2,4,4-tetramethylcyclobutoxy) benzonitrile], under setting [1], the “Dmax (%)” value was “++++ (>80%)” and the DC50 is below 10 nM.
